According to article PMC10174618, “Monoterpenoid aryl hydrocarbon receptor allosteric antagonists protect against ultraviolet skin damage in female mice” (Nature Communications, 2023):

Tests used:
Assay in all cases: biochemical
Set-up in all cases: KINOMEscan scanMAX active site-directed competition binding assay, percent of control, 468 kinases
Conditions in all cases: competition binding, percent of control
ALK(C1156Y) = ALK(C1156Y) (Homo sapiens, UniProt Q9UM73, C1156Y)
Outline: (§1)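 KINOMEscan active site-directed competition binding assay against 468 human kinases with 100 μM S-carvone. Binding expressed as % of control, with 35% of control as the inhibition threshold.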

BRAF(V600E) = BRAF(V600E) (Homo sapiens, UniProt P15056, V600E)
BRAF(V600E), sequence (P15056 whole entry V600E): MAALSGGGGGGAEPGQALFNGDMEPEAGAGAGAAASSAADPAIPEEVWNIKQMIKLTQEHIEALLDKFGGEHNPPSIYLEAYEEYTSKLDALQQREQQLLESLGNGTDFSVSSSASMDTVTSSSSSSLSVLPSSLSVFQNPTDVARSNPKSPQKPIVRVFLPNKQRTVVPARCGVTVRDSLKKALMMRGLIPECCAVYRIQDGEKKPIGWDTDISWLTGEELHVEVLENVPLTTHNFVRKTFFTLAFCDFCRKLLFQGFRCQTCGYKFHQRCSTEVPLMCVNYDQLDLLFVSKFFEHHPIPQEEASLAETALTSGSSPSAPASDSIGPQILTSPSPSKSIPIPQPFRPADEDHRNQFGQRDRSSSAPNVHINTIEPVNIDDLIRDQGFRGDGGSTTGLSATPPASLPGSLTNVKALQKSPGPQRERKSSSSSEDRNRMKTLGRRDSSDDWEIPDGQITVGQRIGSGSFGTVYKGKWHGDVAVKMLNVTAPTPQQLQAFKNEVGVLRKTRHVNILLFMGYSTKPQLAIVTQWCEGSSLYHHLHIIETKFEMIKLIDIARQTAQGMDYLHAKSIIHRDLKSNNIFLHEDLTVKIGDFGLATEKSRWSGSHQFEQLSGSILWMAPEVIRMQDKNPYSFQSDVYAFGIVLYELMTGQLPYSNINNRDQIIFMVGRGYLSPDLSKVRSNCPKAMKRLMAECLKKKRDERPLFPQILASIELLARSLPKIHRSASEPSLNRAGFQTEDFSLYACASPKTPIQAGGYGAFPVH
Outline: as §1

BTK = BTK (Homo sapiens, UniProt Q06187)
BTK, sequence (Q06187 whole entry): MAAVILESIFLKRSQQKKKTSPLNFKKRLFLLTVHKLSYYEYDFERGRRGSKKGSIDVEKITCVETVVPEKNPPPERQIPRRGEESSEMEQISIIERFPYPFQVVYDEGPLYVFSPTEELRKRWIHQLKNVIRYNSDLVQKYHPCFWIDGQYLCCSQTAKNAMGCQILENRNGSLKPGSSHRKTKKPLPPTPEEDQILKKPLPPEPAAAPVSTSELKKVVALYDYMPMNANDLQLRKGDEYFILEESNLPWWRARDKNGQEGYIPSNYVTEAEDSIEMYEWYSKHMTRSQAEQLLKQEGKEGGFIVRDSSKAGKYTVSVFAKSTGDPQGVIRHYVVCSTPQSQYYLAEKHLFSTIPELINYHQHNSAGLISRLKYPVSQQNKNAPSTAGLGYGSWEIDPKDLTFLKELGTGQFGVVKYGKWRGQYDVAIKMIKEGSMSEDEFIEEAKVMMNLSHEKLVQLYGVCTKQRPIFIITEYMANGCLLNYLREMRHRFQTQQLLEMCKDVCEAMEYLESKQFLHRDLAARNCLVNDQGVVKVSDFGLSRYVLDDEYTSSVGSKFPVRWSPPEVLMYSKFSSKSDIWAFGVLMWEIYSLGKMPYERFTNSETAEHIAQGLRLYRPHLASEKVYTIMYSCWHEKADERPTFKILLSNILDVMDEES
Outline: as §1

CAMKK2 = CAMKK2 (Homo sapiens, UniProt Q96RR4)
Outline: as §1

ERK3 = target: T1, ERK3 (Homo sapiens, UniProt Q16659)
T1 construct: gene MAPK6
T1 sequence (Q16659 whole entry): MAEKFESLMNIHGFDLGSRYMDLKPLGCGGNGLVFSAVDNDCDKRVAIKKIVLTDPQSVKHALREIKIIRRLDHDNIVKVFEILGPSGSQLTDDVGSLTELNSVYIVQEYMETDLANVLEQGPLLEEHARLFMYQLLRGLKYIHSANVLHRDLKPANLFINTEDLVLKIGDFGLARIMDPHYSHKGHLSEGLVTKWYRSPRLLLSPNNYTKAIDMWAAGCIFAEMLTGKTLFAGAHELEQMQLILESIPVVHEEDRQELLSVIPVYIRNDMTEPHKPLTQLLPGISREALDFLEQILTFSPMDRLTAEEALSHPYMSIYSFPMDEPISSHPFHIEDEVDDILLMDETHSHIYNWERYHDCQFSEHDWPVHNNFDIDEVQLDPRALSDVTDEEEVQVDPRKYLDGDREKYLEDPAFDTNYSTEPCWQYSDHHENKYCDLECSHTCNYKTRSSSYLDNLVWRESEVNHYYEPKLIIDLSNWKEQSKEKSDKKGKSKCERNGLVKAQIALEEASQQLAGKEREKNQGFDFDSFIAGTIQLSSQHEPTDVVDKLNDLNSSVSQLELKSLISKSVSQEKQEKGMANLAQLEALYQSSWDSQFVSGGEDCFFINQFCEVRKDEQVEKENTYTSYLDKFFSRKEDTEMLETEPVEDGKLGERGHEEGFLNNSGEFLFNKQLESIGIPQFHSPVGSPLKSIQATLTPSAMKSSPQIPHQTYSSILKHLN
Outline: as §1

ERK5 = target: T2, ERK5 (Homo sapiens, UniProt Q13164)
T2 construct: gene MAPK7
Outline: as §1

FGR = FGR (Homo sapiens, UniProt P09769)
Outline: as §1

GRK4 = GRK4 (Homo sapiens, UniProt P32298)
Outline: as §1

IKK-alpha = target: T3, IKK-alpha (Homo sapiens, UniProt O15111)
T3 construct: gene CHUK
Outline: as §1

LTK = LTK (Homo sapiens, UniProt P29376)
Outline: as §1

MTOR = MTOR (Homo sapiens, UniProt P42345)
Outline: as §1

NEK3 = NEK3 (Homo sapiens, UniProt P51956)
NEK3, sequence (P51956 whole entry): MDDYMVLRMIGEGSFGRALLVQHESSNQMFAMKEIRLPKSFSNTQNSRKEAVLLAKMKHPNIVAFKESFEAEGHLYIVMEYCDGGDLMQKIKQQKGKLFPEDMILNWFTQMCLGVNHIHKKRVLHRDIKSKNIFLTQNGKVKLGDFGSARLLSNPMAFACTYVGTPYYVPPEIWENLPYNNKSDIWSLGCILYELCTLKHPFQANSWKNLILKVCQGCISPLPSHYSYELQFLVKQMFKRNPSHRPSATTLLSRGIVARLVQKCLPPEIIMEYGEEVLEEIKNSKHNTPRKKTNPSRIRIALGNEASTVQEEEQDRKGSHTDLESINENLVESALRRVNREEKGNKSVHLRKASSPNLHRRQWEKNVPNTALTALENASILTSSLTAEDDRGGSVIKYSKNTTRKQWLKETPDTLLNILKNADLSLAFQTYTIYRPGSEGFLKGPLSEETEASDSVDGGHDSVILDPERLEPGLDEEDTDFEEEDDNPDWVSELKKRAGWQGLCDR
Outline: as §1

OSR1 = target: T4, OSR1 (Homo sapiens, UniProt O95747)
T4 construct: gene OXSR1
T4 sequence (O95747 whole entry): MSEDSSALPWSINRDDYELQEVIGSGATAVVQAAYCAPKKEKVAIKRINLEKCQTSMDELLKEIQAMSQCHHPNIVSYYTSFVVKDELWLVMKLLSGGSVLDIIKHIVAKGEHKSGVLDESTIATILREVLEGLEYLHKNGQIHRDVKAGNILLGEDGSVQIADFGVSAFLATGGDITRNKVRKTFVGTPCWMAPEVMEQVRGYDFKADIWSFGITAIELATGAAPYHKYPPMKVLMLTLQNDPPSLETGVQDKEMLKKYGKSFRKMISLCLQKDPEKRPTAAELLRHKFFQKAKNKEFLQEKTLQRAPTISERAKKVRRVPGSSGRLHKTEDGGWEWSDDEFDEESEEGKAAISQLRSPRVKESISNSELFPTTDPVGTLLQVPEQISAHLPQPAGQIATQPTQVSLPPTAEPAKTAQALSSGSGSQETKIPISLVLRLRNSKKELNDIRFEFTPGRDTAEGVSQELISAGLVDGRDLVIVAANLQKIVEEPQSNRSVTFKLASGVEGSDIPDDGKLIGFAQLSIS
Outline: as §1

PDGFRA = PDGFRA (Homo sapiens, UniProt P16234)
Outline: as §1

PDPK1 = PDPK1 (Homo sapiens, UniProt O15530)
Outline: as §1

PIK3CA(C420R) = PIK3CA(C420R) (Homo sapiens, UniProt P42336, C420R)
Outline: as §1

[1] = target: T5, RPS6KA5(Kin.Dom.1-N-terminal) (Homo sapiens, UniProt O75582)
T5 construct: Kin.Dom.1-N-terminal
T5 sequence (O75582 whole entry): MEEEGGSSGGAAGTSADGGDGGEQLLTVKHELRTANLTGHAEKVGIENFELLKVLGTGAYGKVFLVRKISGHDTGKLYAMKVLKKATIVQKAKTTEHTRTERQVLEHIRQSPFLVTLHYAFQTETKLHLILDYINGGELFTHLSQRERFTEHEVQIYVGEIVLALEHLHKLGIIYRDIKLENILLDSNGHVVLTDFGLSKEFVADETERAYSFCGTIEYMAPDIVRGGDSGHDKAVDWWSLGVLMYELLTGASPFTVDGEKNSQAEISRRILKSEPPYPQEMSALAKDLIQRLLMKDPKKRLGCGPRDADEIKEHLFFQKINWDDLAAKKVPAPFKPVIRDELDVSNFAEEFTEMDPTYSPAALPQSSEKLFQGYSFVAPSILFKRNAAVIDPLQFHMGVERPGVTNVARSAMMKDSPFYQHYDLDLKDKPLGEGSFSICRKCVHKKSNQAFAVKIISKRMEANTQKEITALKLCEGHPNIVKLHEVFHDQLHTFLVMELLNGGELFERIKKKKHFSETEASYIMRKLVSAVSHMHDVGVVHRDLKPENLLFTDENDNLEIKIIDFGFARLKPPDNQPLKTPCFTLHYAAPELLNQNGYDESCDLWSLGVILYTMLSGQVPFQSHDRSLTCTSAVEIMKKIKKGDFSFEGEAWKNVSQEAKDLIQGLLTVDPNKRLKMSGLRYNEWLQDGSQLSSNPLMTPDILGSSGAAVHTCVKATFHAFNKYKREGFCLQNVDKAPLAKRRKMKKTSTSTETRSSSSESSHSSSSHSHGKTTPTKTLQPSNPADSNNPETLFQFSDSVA
Outline: as §1

[2] = target: T6, RPS6KA5(Kin.Dom.2-C-terminal) (Homo sapiens, UniProt O75582)
T6 construct: Kin.Dom.2-C-terminal
T6 sequence (O75582 whole entry): as above
Outline: as §1

STK36 = STK36 (Homo sapiens, UniProt Q9NRP7)
Outline: as §1

YANK2 = target: T7, YANK2 (Homo sapiens, UniProt Q9NY57)
T7 construct: gene STK32B
T7 sequence (Q9NY57 whole entry): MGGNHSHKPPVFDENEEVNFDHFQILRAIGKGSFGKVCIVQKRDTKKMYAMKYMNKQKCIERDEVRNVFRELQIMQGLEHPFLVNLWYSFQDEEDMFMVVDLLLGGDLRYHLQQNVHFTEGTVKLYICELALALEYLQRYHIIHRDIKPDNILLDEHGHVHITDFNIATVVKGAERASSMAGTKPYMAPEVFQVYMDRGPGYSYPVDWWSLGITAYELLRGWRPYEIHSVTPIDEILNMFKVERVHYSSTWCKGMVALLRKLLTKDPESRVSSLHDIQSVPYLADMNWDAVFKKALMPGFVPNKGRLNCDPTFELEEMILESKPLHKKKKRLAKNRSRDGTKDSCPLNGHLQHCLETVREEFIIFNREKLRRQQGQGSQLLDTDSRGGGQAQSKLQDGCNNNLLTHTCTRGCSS
Outline: as §1

p38-delta = target: T8, p38-delta (Homo sapiens, UniProt O15264)
T8 construct: gene MAPK13
T8 sequence (O15264 whole entry): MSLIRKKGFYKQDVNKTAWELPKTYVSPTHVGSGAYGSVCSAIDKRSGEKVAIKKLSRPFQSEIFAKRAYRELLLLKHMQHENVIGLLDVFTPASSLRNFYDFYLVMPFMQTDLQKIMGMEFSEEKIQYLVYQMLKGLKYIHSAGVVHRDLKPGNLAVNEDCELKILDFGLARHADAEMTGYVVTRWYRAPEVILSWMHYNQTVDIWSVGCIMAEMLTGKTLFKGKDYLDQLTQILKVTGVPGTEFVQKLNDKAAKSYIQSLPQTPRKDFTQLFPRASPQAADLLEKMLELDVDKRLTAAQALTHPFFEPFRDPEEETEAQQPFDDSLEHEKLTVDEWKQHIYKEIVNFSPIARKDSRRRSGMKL
Outline: as §1

remaining binding at 100 µM (ALK(C1156Y)): 70%
remaining binding at 100 µM (BRAF(V600E)): 90%
remaining binding at 100 µM (BTK): 70%
remaining binding at 100 µM (CAMKK2): 81%
remaining binding at 100 µM (ERK3): 73%
remaining binding at 100 µM (ERK5): 93%
remaining binding at 100 µM (FGR): 57%
remaining binding at 100 µM (GRK4): 66%
remaining binding at 100 µM (IKK-alpha): 72%
remaining binding at 100 µM (LTK): 79%
remaining binding at 100 µM (MTOR): 78%
remaining binding at 100 µM (NEK3): 49%
remaining binding at 100 µM (OSR1): 78%
remaining binding at 100 µM (PDGFRA): 80%
remaining binding at 100 µM (PDPK1): 74%
remaining binding at 100 µM (PIK3CA(C420R)): 96%
remaining binding at 100 µM [1]: 84%
remaining binding at 100 µM [2]: 85%
remaining binding at 100 µM (STK36): 69%
remaining binding at 100 µM (YANK2): 79%
remaining binding at 100 µM (p38-delta): 57%
Structure (SMILES): C=C(C)[C@H]1CC=C(C)C(=O)C1 [S-carvone]
